Experimental data from patent US3996228A, “Pyrimidinoaminoethyl ergoline derivatives” (Societa' Farmaceutici Italia S.p.A., priority 1973, dated 1976).
≈ marks a conversion by molar mass, not a printed value. Like-named read-outs stand apart in the source and are kept apart here.

How the values were obtained:
[1] = analgesic activity, hot plate test; assay type: in vivo; conditions: for Analgesic Activity Hot Plate, relative to D-propoxyphene: D-propoxyphene = 1
Experimental: (§1) The analgesic activity was evaluated by means of the hot plate test and the writhing test, the data being given in comparison with morphine and D-propoxyphene.
(§2) In the hot plate and writhing tests, the comparison compounds morphine and D-propoxyphene have been arbitrarily assigned the value of 1.

[2] = analgesic activity, writhing test; assay type: in vivo
Experimental: as §1, §2

hypertensive rat = test: hypotensive activity on the hypertensive rat; assay type: in vivo; conditions: po, per os, dose which causes a pressure drop of about 30-40 mmHg, read-out: Hypotensive Activity active dose
Experimental: The hypotensive activity was tested on the hypertensive rat; the reported data being the dose expressed in mg/Kg per os, which causes a pressure drop of about 30-40 mmHg.

[3] = system: isolated guinea pig seminal vescicle; test: adrenolytic activity in vitro: inhibition of the spasmogen effect caused by adrenaline; assay type: cell-based; conditions: Cavia porcellus, 50% inhibition of spasmogen effect caused by adrenaline
Experimental: (§3) The compounds of the present invention have a high and prolonged adrenolytic activity and a low toxicity and are therefore useful in therapy. This adrenolytic activity was tested "in vitro" on isolated guinea pig seminal vescicle suspended in physiological solution and "in vivo" on the rat. Table 1 reports the values of concentrations, in γ/ml, which are able to produce a 50% inhibition (IC50) of the spasmogen effect caused by adrenaline and the doses in mg/Kg (ED50) able to reduce by 50% the lethal effects caused by adrenaline after oral (os) and intravenous (i.v.) administration of the compounds in question. Table 1 also reports the LD50 values, both per os and i.v. in rats.

[4] = system: lethal effects caused by adrenaline; test: adrenolytic activity in vivo: reduction of the lethal effects caused by adrenaline; conditions: rat, 50% reduction of lethal effects caused by adrenaline
Experimental: as §3

LD50 (acute toxicity) = conditions: rat, in vivo, rats
Experimental: as §3

[5] = morphine = 1, listed as 1,6-dimethyl-8β-[5-amino-2-pyrimidino-aminoethyl]-10α-ergoline
[6] = iv, i.v., read-out: Adrenolytic Activity "in vivo" ED50 i.v.
[7] = po, per os, read-out: Adrenolytic Activity "in vivo" ED50 os

| SMILES | Analgesic Activity Hot Plate, relative to D-propoxyphene [1] | Analgesic Activity Hot Plate, relative to morphine ([1]; morphine = 1) | Analgesic Activity Hot Plate, relative to morphine [1, 5] | Analgesic Activity Writhing, relative to D-propoxyphene ([2]; D-propoxyphene = 1) | Analgesic Activity Writhing, relative to morphine ([2]; morphine = 1) | Analgesic Activity Writhing, relative to morphine [2, 5] | ED (30-40 mmHg pressure drop) (hypertensive rat) [mg/kg] | IC50 [3] [µg/mL] | ED50 [4, 6] [mg/kg] | ED50 [4, 7] [mg/kg] | LD50 (LD50 (acute toxicity); po, per os, read-out: LD50 os) [mg/kg] | LD50 (LD50 (acute toxicity); iv, i.v., read-out: LD50 i.v.) [mg/kg] |
| --- | --- | --- | --- | --- | --- | --- | --- | --- | --- | --- | --- | --- |
| CN1C[C@H](CCNc2ncc(N)cn2)C[C@@H]2c3cccc4c3c(cn4C)C[C@H]21 [1,6-dimethyl-8β-[5-amino-2-pyrimidinoaminoethyl]-10α-ergoline] | 5 | 1 | same activity as morphine | 10 | 1 | same activity as morphine | 10 | – | – | – | – | – |
| COc1cnc(NCC[C@@H]2C[C@@H]3c4cccc5c4c(cn5C)C[C@H]3N(C)C2)nc1 [1,6-dimethyl-8β-[5-methoxy-2-pyrimidinoaminoethyl]-10α-ergoline] | 2 | 0.5 | – | – | – | – | 10 | – | – | – | – | – |
| CO[C@]12C[C@@H](CCNc3ncc([N+](=O)[O-])cn3)CN(C)[C@@H]1Cc1cn(C)c3cccc2c13 [1,6-Dimethyl-8β-[5-nitro-2-pyrimidinoaminoethyl]-10α-methoxyergoline] | – | – | – | – | – | – | – | 0.5 (≈ 1.15 µM) | 0.25 | 0.42 | 150 | – |
| CO[C@]12C[C@@H](CCNc3ncc(Br)cn3)CN(C)[C@@H]1Cc1cn(C)c3cccc2c13 [1,6-dimethyl-8β-[5-bromo-2-pyrimidinoaminoethyl]-10α-methoxyergoline] | – | – | – | – | – | – | – | 0.01 (≈ 0.0213 µM) | 0.65 | > 1 | 200 | – |
| CN1C[C@H](CCNc2ncccn2)C[C@@H]2c3cccc4c3c(cn4C)C[C@H]21 [1,6-dimethyl-8β-[2-pyrimidinoaminoethyl]-10α-ergoline] | – | – | – | – | – | – | – | 0.001 (≈ 0.00277 µM) | 0.2 | 0.1 | 100 | 18 |
| Cc1cnc(NCC[C@@H]2C[C@@H]3c4cccc5c4c(cn5C)C[C@H]3N(C)C2)nc1 [1,6-Dimethyl-8β-[5-methyl-2-pyrimidinoaminoethyl]-10α-ergoline] | – | – | – | – | – | – | – | 0.5 (≈ 1.33 µM) | 0.07 | 0.5 | 130 | 19 |
